From ChEMBL document CHEMBL3885861, “Open TG-GATES”

Species: Rattus norvegicus
Assay: Open TG-GATES - Regimen: Daily Repeat
Format: toxicity, organism-based, Sprague-Dawley
Parameters: regimen Daily Repeat, gender Male, age 6 weeks
Conditions: in vivo, iv, route intravenous injection; for gamma-GTP / ALP / ALT / AST / BUN / CRE / DBIL / GLC / IP / K / LDH / PL / RALB / TBIL / TC / TP / TG: tissue Plasma; for APTT / Bas / Eos / Fbg / Hb / Ht / Lym / MCH / MCHC / Mono / Neu / PT / Plat / RBC / Ret / WBC / MCV: tissue Blood; for KIDNEY_L / KIDNEY_R / KIDNEY_TOTAL: tissue Kidney; for LIVER: tissue Liver
[1] = 30 mg/kg, 72 h, dose level Middle, time 3 day
[2] = 30 mg/kg, […], dose level Middle, time 7 day
[3] = 30 mg/kg, […], dose level Middle, time 14 day
[4] = 30 mg/kg, […], dose level Middle, time 28 day
[5] = 100 mg/kg, 72 h, dose level High, time 3 day
[6] = 100 mg/kg, […], dose level High, time 7 day
[7] = 100 mg/kg, […], dose level High, time 14 day
[8] = 100 mg/kg, […], dose level High, time 28 day

## GENTAMICIN
10 mg/kg, […], dose level Low, time 28 day
  gamma-GTP: 2 IU/L
[1]
  TERMINAL_BW: 231.1 g
  APTT: 22 s
  Bas: 0%
  Eos: 1%
  Fbg: 292.8 mg/dL
  Hb: 12.8 g/dL
  Ht: 37.4%
  Lym: 75.4%
  MCH: 21 pg
  MCHC: 34.2%
  Mono: 3.2%
  Neu: 19.8%
  PT: 16.5 s
  Plat: 116.2 x10_4/uL
  RBC: 608.6 x10_4/ul
  Ret: 5.4%
  WBC: 99.7 x10_2/uL
  KIDNEY_L: 1 g
  KIDNEY_R: 1 g
  KIDNEY_TOTAL: 2 g
  ALP: 1568.4 IU/L
  ALT: 38.4 IU/L
  AST: 70.6 IU/L
  BUN: 19 mg/dL
  CRE: 0.2 mg/dL
  DBIL: 0 mg/dL
  GLC: 170.6 mg/dL
  IP: 6.8 mg/dL
  K: 4.7 meq/L
  LDH: 175 IU/L
  PL: 147.8 mg/dL
  RALB: 3 g/dL
  TBIL: 0.008 mg/dL
  TC: 69.2 mg/dL
  TP: 5.4 g/dL
  gamma-GTP: 1.8 IU/L
[2]
  TERMINAL_BW: 256.1 g
  APTT: 24.3 s
  Bas: 0%
  Eos: 1.2%
  Fbg: 303.4 mg/dL
  Ht: 39%
  Lym: 75%
  MCH: 21 pg
  MCHC: 34.7%
  MCV: 60.6 fL
  Mono: 4%
  PT: 15.9 s
  Plat: 111.1 x10_4/uL
  RBC: 644.4 x10_4/ul
  Ret: 4.1%
  WBC: 106.4 x10_2/uL
  KIDNEY_L: 1.1 g
  KIDNEY_R: 1.1 g
  KIDNEY_TOTAL: 2.1 g
  LIVER: 10.8 g
  ALP: 1481.6 IU/L
  ALT: 40.6 IU/L
  BUN: 17 mg/dL
  CRE: 0.2 mg/dL
  DBIL: 0 mg/dL
  GLC: 174.8 mg/dL
  IP: 6.1 mg/dL
  K: 4.5 meq/L
  LDH: 152.6 IU/L
  PL: 146.8 mg/dL
  RALB: 3 g/dL
  TBIL: 0.006 mg/dL
  TC: 72 mg/dL
  TG: 131.4 mg/dL
  TP: 5.6 g/dL
  gamma-GTP: 1.6 IU/L
[3]
  TERMINAL_BW: 289.4 g
  APTT: 22.8 s
  Bas: 0%
  Eos: 0.8%
  Fbg: 296.4 mg/dL
  Ht: 40.3%
  Lym: 81.4%
  MCHC: 35.7%
  MCV: 58.2 fL
  Mono: 2.2%
  Plat: 106 x10_4/uL
  RBC: 693.6 x10_4/ul
  Ret: 3.2%
  WBC: 131.7 x10_2/uL
  KIDNEY_L: 1.2 g
  KIDNEY_R: 1.2 g
  KIDNEY_TOTAL: 2.4 g
  LIVER: 10.8 g
  ALP: 1265.2 IU/L
  ALT: 36.8 IU/L
  AST: 67.6 IU/L
  CRE: 0.2 mg/dL
  DBIL: 0 mg/dL
  GLC: 176.4 mg/dL
  IP: 5.9 mg/dL
  K: 4.3 meq/L
  LDH: 144.8 IU/L
  PL: 140.2 mg/dL
  RALB: 3 g/dL
  TBIL: 0.008 mg/dL
  TC: 68.6 mg/dL
  TG: 114 mg/dL
  TP: 5.7 g/dL
  gamma-GTP: 1.8 IU/L
[4]
  TERMINAL_BW: 356.8 g
  APTT: 23.3 s
  Bas: 0%
  Eos: 0.8%
  Fbg: 308 mg/dL
  Hb: 15.3 g/dL
  Ht: 42.9%
  Lym: 80.4%
  MCH: 19.2 pg
  MCHC: 35.7%
  MCV: 53.7 fL
  Mono: 2.4%
  Plat: 107.2 x10_4/uL
  RBC: 799 x10_4/ul
  Ret: 1.8%
  WBC: 106 x10_2/uL
  KIDNEY_L: 1.5 g
  KIDNEY_R: 1.6 g
  KIDNEY_TOTAL: 3.1 g
  LIVER: 12.3 g
  ALP: 959 IU/L
  ALT: 31 IU/L
  CRE: 0.3 mg/dL
  DBIL: 0.002 mg/dL
  GLC: 176.4 mg/dL
  IP: 5.6 mg/dL
  K: 4.2 meq/L
  LDH: 109.8 IU/L
  PL: 130 mg/dL
  RALB: 3 g/dL
  TBIL: 0.01 mg/dL
  TC: 68.4 mg/dL
  TG: 103 mg/dL
  TP: 5.8 g/dL
  gamma-GTP: 2.2 IU/L
[5]
  TERMINAL_BW: 229.2 g
  APTT: 22 s
  Bas: 0%
  Eos: 1%
  Fbg: 294.4 mg/dL
  Ht: 38.2%
  Lym: 80.8%
  MCH: 21 pg
  MCHC: 34.3%
  MCV: 61.1 fL
  Mono: 3.8%
  Neu: 13%
  PT: 16.5 s
  Plat: 115 x10_4/uL
  RBC: 625.8 x10_4/ul
  Ret: 4.8%
  WBC: 83.9 x10_2/uL
  KIDNEY_L: 1 g
  KIDNEY_R: 1 g
  KIDNEY_TOTAL: 2 g
  LIVER: 10 g
  ALP: 1437 IU/L
  AST: 67.4 IU/L
  CRE: 0.2 mg/dL
  DBIL: 0 mg/dL
  GLC: 170 mg/dL
  IP: 6.8 mg/dL
  K: 4.7 meq/L
  LDH: 137.2 IU/L
  PL: 131.4 mg/dL
  RALB: 3 g/dL
  TBIL: 0.014 mg/dL
  TC: 64.8 mg/dL
  TG: 100 mg/dL
  TP: 5.5 g/dL
  gamma-GTP: 1.4 IU/L
[6]
  TERMINAL_BW: 262.4 g
  APTT: 24.3 s
  Bas: 0%
  Eos: 1.2%
  Fbg: 314.2 mg/dL
  Lym: 77.6%
  MCHC: 34.5%
  MCV: 60.6 fL
  Mono: 4.2%
  Plat: 106.7 x10_4/uL
  RBC: 646.4 x10_4/ul
  Ret: 4.3%
  WBC: 117.3 x10_2/uL
  KIDNEY_L: 1.2 g
  KIDNEY_R: 1.2 g
  KIDNEY_TOTAL: 2.5 g
  LIVER: 10.9 g
  ALP: 1249 IU/L
  ALT: 39.8 IU/L
  AST: 73 IU/L
  CRE: 0.2 mg/dL
  DBIL: 0 mg/dL
  GLC: 182.6 mg/dL
  IP: 6 mg/dL
  K: 4.6 meq/L
  LDH: 158.8 IU/L
  PL: 139.8 mg/dL
  RALB: 3 g/dL
  TBIL: 0.004 mg/dL
  TC: 71 mg/dL
  TG: 91.4 mg/dL
  TP: 5.6 g/dL
  gamma-GTP: 2 IU/L
[7]
  TERMINAL_BW: 275.2 g
  APTT: 23.3 s
  Bas: 0%
  Eos: 1%
  Fbg: 320.8 mg/dL
  Lym: 83%
  MCH: 21.1 pg
  MCHC: 36.2%
  MCV: 58.1 fL
  Mono: 3%
  PT: 16.4 s
  Plat: 114.3 x10_4/uL
  RBC: 701.8 x10_4/ul
  Ret: 1.8%
  WBC: 106.6 x10_2/uL
  KIDNEY_L: 1.5 g
  KIDNEY_R: 1.5 g
  KIDNEY_TOTAL: 3 g
  LIVER: 10.2 g
  ALP: 1114.5 IU/L
  ALT: 33.5 IU/L
  AST: 71.8 IU/L
  BUN: 20 mg/dL
  CRE: 0.3 mg/dL
  DBIL: 0 mg/dL
  IP: 6 mg/dL
  K: 4.2 meq/L
  PL: 148.8 mg/dL
  RALB: 3.1 g/dL
  TBIL: 0.015 mg/dL
  TC: 81.8 mg/dL
  TG: 98.2 mg/dL
  TP: 5.7 g/dL
  gamma-GTP: 2.5 IU/L
[8]
  TERMINAL_BW: 315.6 g
  APTT: 23.9 s
  Bas: 0%
  Eos: 1.2%
  Fbg: 282.2 mg/dL
  Hb: 14.7 g/dL
  Ht: 40.7%
  Lym: 83.5%
  MCH: 19 pg
  MCHC: 36.1%
  MCV: 52.6 fL
  Mono: 2.2%
  Neu: 11.5%
  PT: 16.5 s
  Plat: 118.3 x10_4/uL
  RBC: 773 x10_4/ul
  Ret: 1.3%
  WBC: 112.9 x10_2/uL
  KIDNEY_L: 1.6 g
  KIDNEY_R: 1.7 g
  KIDNEY_TOTAL: 3.3 g
  ALP: 662.5 IU/L
  AST: 67 IU/L
  BUN: 18 mg/dL
  CRE: 0.3 mg/dL
  DBIL: 0 mg/dL
  IP: 5.8 mg/dL
  K: 3.6 meq/L
  LDH: 109.2 IU/L
  PL: 112 mg/dL
  RALB: 3.1 g/dL
  TBIL: 0.03 mg/dL
  TC: 67 mg/dL
  TG: 40 mg/dL
  TP: 5.9 g/dL
  gamma-GTP: 2.5 IU/L
